Assays:
db/db mice [1] = test: Oral glucose tolerance test in db/db mice; assay type: in vivo; conditions: 50 mpk
Description: Oral glucose tolerance test (OGTT) was performed as followed, at day 35 of treatment, after a 16-hour fasting period, an oral glucose load was administered at T=0 (2 g/kg of glucose, 10 mL/kg) and glycemia was measured at the tail vein at T=15, 30, 60, 90, 120 & 180 minutes.
Oral glucose tolerance test is a widely used assay perform to assess the body's tolerance to an orally glucose bolus, it is considered as a good marker of insulin resistance and diabetes. […] Improvement of the body's insulin sensitivity is illustrated on FIG. 3(b).

Bmal1 = test: Gene expression of Rev-Erb alpha target gene Bmal1 in tissues of treated db/db mice; assay type: in vivo; conditions: 25 and 100 mpk, adipose tissue, muscle, liver
Source text: At the end of the treatment period, animals were anesthetized with isoflurane and then sacrificed by cervical dislocation. Liver, quadriceps muscle and epididymal adipose tissues were collected. The Student's t-test was used to test for statistical differences between drug and vehicle treatments when a single dose of drug was used while ANOVA followed by Dunnett's Multiple Comparison post hoc test was used for dose responses.
Gene expression studies have been performed on mRNA isolated from different metabolic tissues such as liver, adipose tissue and skeletal muscle. […] is considered as a target gene of Rev-Erba. Activation of Rev-Erba activity should then translate in a reduction of […] gene expression.

Rev-Erb alpha [2] = target: T1, Rev-Erb alpha (Homo sapiens, UniProt P20393); test: M2H (mammalian two-hybrid) cellular activation assay of Rev-Erb alpha; assay type: cell-based; conditions: M2H assay, HEK293 cells, Gal4-Rev-Erb alpha / VP16-NCoR, luciferase reporter
T1 sequence (P20393 284-614 limits assumed): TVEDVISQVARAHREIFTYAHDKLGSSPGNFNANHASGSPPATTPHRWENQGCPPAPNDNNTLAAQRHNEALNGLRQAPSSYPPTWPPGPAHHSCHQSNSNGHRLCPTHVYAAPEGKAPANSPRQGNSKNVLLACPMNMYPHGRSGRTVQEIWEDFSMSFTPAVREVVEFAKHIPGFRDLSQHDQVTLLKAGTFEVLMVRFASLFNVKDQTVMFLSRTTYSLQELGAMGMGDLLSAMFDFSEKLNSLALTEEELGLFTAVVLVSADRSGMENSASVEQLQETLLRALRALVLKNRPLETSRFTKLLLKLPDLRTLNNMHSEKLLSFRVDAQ
Method in brief: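 Six-point dose-response, 18 h, 37 °C, serum-free, in HEK293 cells carrying a Gal4-RE luciferase reporter with Gal4-Rev-Erb alpha or beta plus VP16-NCoR (corepressor interaction readout). EC50 and TOP activation (%) derived from luminescence across four experiments.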

db/db mice [3] = test: In vivo evaluation in db/db mice: glycemia, HbA1c, plasma triglycerides; conditions: once daily by gavage, 28 days
Description: 7-weeks-old male db/db mice were purchased from Charles River (France). Mice were 9-weeks-old at the beginning of the study. All mice were housed 2 per cage under controlled conditions of humidity, lighting and temperature. They had free access to food (R03, SAFE) and water.
Mice were randomized according to their body weight, and the non-fasting glycaemia, and assigned to 3 different groups: • Group 1: Control_Vehicle n=8 • Group 2: Cpd-4-39 25 mg/kg n=8 • Group 3: Cpd-4-39 100 mg/kg n=8 Treatments and Sample Analysis
The treatments were administered once daily, by gavage (10 mL/kg) for 28 consecutive days (unless otherwise mentioned). For oral administrations, compound was suspended in CMC 1%+Tween 80 0.1%.
Non fasting blood glucose level was determined from tail vein blood using a glucometer (Smart Chek, Kitvia), Blood samples were withdrawn under anesthesia by retro-orbital puncture at the end of the treatment period. Tubes containing blood were rapidly centrifuged after collection (15 minutes at 4,000 rpm/4° C.) and the plasma fraction was collected. Plasma aliquots were stored at −20° C. for further analyses.
The blood concentration of glycosylated hemoglobin A1c was determined using the Randox kit for Daytona automate (Randox, cat# HA 3830) according to the manufacturer's recommendations. Total hemoglobin and HbA1c concentrations were measured and the HbA1c result was expressed as a percentage of the total hemoglobin concentration.
The triglyceride content of plasma was measured using the Randox kit for Daytona automate (Randox, cat# TR 3823) according to the manufacturer's recommendations. In this protocol, the triglycerides are hydrolyzed by a lipase. The resulting glycerol concentration is then measured by an enzymatic method and spectrophotometric measurement. Results are expressed in mg/dL. • Oral Glucose Tolerance Test
At the end of the treatment period, animals were anesthetized with isoflurane and then sacrificed by cervical dislocation. Liver, quadriceps muscle and epididymal adipose tissues were collected. […]

Rev-Erb alpha [4] = target: T2, Rev-Erb alpha (Homo sapiens, UniProt P20393); conditions: Moore J T et al., 2006; cited from earlier work
T2 sequence (P20393 1-614): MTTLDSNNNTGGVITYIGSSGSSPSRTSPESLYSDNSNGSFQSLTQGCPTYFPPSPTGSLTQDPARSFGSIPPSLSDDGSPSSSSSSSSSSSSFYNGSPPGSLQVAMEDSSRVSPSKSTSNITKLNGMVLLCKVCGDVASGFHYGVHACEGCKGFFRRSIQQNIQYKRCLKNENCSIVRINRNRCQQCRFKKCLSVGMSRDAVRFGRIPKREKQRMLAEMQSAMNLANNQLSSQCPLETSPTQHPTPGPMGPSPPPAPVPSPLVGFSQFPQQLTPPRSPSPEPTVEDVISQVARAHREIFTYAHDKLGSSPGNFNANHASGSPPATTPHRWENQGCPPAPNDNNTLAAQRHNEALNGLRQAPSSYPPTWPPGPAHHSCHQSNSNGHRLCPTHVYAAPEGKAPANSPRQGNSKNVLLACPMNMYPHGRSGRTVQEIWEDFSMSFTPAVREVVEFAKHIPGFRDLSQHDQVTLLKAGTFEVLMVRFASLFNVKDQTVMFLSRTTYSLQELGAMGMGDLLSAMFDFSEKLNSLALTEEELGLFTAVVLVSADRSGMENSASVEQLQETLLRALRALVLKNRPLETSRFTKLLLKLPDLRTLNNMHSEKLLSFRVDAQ

Row | SMILES | area under the curve, glucose tolerance (db/db mice [1]; OGTT) | evolution of blood glucose in oral glucose tolerance test (db/db mice [1]; day 35, 16-hour fasting, 2 g/kg glucose) | Small expression in the studied organs (Bmal1 gene expression, FIGS. 13) (Bmal1) | EC50 (Rev-Erb alpha [2]) | Circulating triglycerides (db/db mice [3]; 25 and 100 mpk) | HbA1c (db/db mice [3]; 25 and 100 mpk) | glycemia (db/db mice [3]; 100 mpk, compared to control mice) | Kd (Rev-Erb alpha [4])
1 | FC(F)(F)c1ccc(-c2cccnc2)c(Oc2ccc3nnc(Cl)n3n2)c1 | Cpd-4-39 dependent effect on glucose tolerance | improved evolution of their blood glucose | significant inhibition | 100 to 1000 nM | reduced | significantly reduced | significantly reduced | –
2 | C=CC1=C(C)c2cc3[n-]c(cc4[n-]c(cc5nc(cc1n2)C(C)=C5C=C)c(C)c4CCC(=O)O)c(CCC(=O)O)c3C.[Fe+2] [Heme] | – | – | – | – | – | – | – | 2000 to 3000 nM

— US9586963B2 (GENFIT, priority 2011, dated 2017)
